Assay results taken from PMC8171062, “Crystallographic fragment screening-based study of a novel FAD-dependent oxidoreductase from Chaetomium thermophilum” (Acta Crystallographica. Section D, Structural Biology, 2021).

Key:
Assay in all cases: X-ray crystal structure, […] A, soaking
Format in all cases: binding
[1] = molecular target: T1, CtFDO (CtFDOdegl) (Thermochaetoides thermophila, UniProt G0SAW6); conditions: crystals at pH 5.5; thiophene in subsite S2, aliphatic moiety in catalytic site; occupancy 0.9; formic acid in S1
T1 construct: gene CTHT_0048040; secreted from Aspergillus oryzae, no tag mentioned; signal peptide (21), next 20 N-terminal and 8 C-terminal residues absent; 595 residues by LC-MS/MS; endoglycosidase F1 deglycosylated; about 68 kDa; monomer

[2] = molecular target: T1, CtFDO (CtFDOdegl); conditions: 20 mM MgCl2; two molecules per chain, subsites S1 and S3; occupancy 0.7-0.8; formic acid in catalytic site
[3] = molecular target: T1, CtFDO (CtFDOdegl); conditions: crystals at pH 5.5; catalytic site; occupancy 1.0; formic acid in S1

T1 sequence (G0SAW6 entry or part of it): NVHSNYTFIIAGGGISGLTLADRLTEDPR
T1 sequence (G0SAW6 entry or part of it): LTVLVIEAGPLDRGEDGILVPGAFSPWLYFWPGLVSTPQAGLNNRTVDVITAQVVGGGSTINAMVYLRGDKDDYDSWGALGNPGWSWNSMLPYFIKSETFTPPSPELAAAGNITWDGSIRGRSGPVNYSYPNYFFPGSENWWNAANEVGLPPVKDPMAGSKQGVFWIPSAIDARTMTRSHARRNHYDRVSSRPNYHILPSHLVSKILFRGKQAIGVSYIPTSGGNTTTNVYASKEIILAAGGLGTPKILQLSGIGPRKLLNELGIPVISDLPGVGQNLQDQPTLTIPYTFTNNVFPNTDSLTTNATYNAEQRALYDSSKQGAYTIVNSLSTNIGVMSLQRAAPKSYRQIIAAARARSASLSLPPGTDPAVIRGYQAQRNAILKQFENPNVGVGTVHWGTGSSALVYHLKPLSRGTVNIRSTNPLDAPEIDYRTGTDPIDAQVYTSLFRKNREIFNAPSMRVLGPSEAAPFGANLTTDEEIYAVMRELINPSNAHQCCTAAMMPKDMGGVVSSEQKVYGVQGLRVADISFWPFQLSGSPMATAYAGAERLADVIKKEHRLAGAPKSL

SMILES: C[C@H](NC(=O)CCC(=O)c1cccs1)c1cccnc1 [PESB, 4-oxo-N-[(1S)-1-(pyridin-3-yl)ethyl]-4-(thiophen-2-yl)butanamide]
- X-ray crystal structure, 1.60 A, soaking [1]: each protein chain binds one PESB molecule

SMILES: O=[N+]([O-])c1ccc(O)c(O)c1 [4NC, 4-nitrocatechol]
- X-ray crystal structure, 1.26 A, soaking [2]: both CtFDOdegl chains bind two molecules of 4NC

SMILES: COC(=O)c1ccc(CN)cc1 [MAMB, methyl-4-(aminomethyl)benzoate]
- X-ray crystal structure, 2.22 A, soaking [3]: CtFDOdegl binds one MAMB molecule in the CS
